The values below are quoted from earlier work in paper PMC7594070, “N-Alkylated Iminosugar Based Ligands: Synthesis and Inhibition of Human Lysosomal β-Glucocerebrosidase” (Molecules, 2020).

The series concerns the target GCase. As to conditions: cited from earlier work.

Read-outs that look alike come from different tables or passages of the source.

Usually Ki stands for the dissociation constant of the complex between target and ligand, obtained from inhibition or displacement. For `OC[C@@H]1[C@@H](O)[C@H](O)[C@@H](O)CN1CCCCCCCCCn1cc(COCC(COCc2cn(CCCCCCCCCN3C[C@H](O)[C@@H](O)[C@H](O)[C@H]3CO)nn2)(COCc2cn(CCCCCCCCCN3C[C@H](O)[C@@H](O)[C@H](O)[C@H]3CO)nn2)COCc2cn(CCCCCCCCCN3C[C@H](O)[C@@H](O)[C@H](O)[C@H]3CO)nn2)nn1` [Compound 17], the Ki (read-out: Ki GCase inhibition, multivalent iminosugars) was 0.055 µM. For `CC[C@@H]1[C@H](O)[C@@H](O)[C@H](O)CN1CCCCCC(=O)OC` [Compound 19], the Ki (read-out: Ki GCase) was 57 µM. Consider `CC[C@@H]1[C@H](O)[C@@H](O)[C@H](O)CN1CCCCCC(=O)NCCc1c[nH]cn1` [Compound 20], for which, under “read-out: Ki GCase”, the Ki is 4.1 µM.
